The text below walks through data of patent US6191115A, “C-terminus modified heptapeptide LHRH analogs” (Abbott Laboratories, priority 1999, dated 2001).

Starred links: 1 amine or outer side, 2 acyl side, 3 side chain; linkers in the order of their positions; H or OH if unused. Non-standard residues stand in square brackets, D forms with d. Residues, ends and D or L forms follow the SMILES beside them. *: point of attachment. dPhe(4-Cl) = N[C@H](Cc1ccc(Cl)cc1)C(=O)O; NH(CH2)10NH = C(CCCCCN[*:2])CCCCN[*:1]; d2Nal = N[C@H](Cc1ccc2ccccc2c1)C(=O)O; NMeY = CN[C@@H](Cc1ccc(O)cc1)C(=O)O; NHCH2(2-pyridyl) = c1ccc(CN*)nc1; d3Pal = N[C@H](Cc1cccnc1)C(=O)O; Nicotinoyl = O=C(c1cccnc1)*; NH(CH2)8NH2 = NCCCCCCCCN*; Agmatine = N=C(N)NCCCCN*; X9 = CC(C)NCCCCCCCCCCN*; X6 = N=C(N)NCCCCCCCCN*; NHCH2CH2NHMe = CNCCN*

This assay addresses T1, LH release from rat pituitary cells (Rattus norvegicus, UniProt P30969).
T1 sequence (P30969 1-327): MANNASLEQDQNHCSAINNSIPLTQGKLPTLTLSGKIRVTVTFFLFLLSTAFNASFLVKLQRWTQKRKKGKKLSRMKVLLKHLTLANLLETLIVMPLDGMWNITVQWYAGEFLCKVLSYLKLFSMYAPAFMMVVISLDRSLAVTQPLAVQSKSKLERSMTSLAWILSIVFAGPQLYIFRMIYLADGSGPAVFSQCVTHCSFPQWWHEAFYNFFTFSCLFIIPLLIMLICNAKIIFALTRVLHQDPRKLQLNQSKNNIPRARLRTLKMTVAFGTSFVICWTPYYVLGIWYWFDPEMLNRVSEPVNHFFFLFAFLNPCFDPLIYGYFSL
In words: in vitro inhibition of LH release from rat pituitary cells (pA2). The format is cell-based. The settings on record: pA2 = negative logarithm of antagonist concentration required to shift the response curve of the agonist leuprolide to two-fold higher concentration. The method, then:
Representative compounds of the present invention were evaluated in vitro for inhibition of LH release from rat pituitary cells (pA2). Methods for the assay procedures arc described by F. Haviv, et al. J. Med. Chem., 32:2340-2344 (1989). Values of pA2 are the negative logarithms of the concentration of the particular antagonist test compound required to shift the response curve produced by the agonist leuprolide to two-fold higher concentration. Typically values of 7.0 or greater are indicative of good LHRH antagonist potency, with values of 8.0 or greater being preferred. Leuprolide LHRH agonist, disclosed and claimed in U.S. Pat. No. 4,005,063, has the structure 5-oxo-Pro^1 -His^2 -Trp^3 -Ser^4 -Tyr^5 -D-Leu^6 -Leu^7 -Arg^8 -Pro^9 -NHEt.

As to `CC(=O)N[C@H](Cc1ccc2ccccc2c1)C(=O)N[C@H](Cc1ccc(Cl)cc1)C(=O)N[C@H](Cc1cccnc1)C(=O)N[C@@H](CO)C(=O)N(C)[C@@H](Cc1ccc(O)cc1)C(=O)N[C@H](CCCCNC(=O)c1cccnc1)C(=O)N[C@@H](CC(C)C)C(=O)NCCCCCCCCCCN` [Example 17, NAcD2Nal-D4ClPhe-D3Pal-Ser-NMeTyr-DLys(Nic)-Leu-NH--(CH2)10 NH2] (Ac-[d2Nal][dPhe(4-Cl)][d3Pal]S[NMeY][dK](Nicotinoyl)L-{NH(CH2)10NH}), the “LHRH antagonist potency (pA2)” value worked out at 7.63. In the case of `CC(=O)N[C@H](Cc1ccc2ccccc2c1)C(=O)N[C@H](Cc1ccc(Cl)cc1)C(=O)N[C@H](Cc1cccnc1)C(=O)N[C@@H](CO)C(=O)N(C)[C@@H](Cc1ccc(O)cc1)C(=O)N[C@H](CCCCNC(=O)c1cccnc1)C(=O)N[C@@H](CC(C)C)C(=O)NCCCCCCCCN` [Example 18, NAcD2Nal-D4ClPhe-D3Pal-Ser-NMeTyr-DLys(Nic)-Leu-NH--(CH2)8 NH2] (Ac-[d2Nal][dPhe(4-Cl)][d3Pal]S[NMeY][dK](Nicotinoyl)L-{NH(CH2)8NH2}), the “LHRH antagonist potency (pA2)” value turned out to be 8.48. On to `CNCCNC(=O)[C@H](CC(C)C)NC(=O)[C@@H](CCCCNC(=O)c1cccnc1)NC(=O)[C@H](Cc1ccc(O)cc1)N(C)C(=O)[C@H](CO)NC(=O)[C@@H](Cc1cccnc1)NC(=O)[C@@H](Cc1ccc(Cl)cc1)NC(=O)[C@@H](Cc1ccc2ccccc2c1)NC(C)=O` [Example 19, NAcD2Nal-D4ClPhe-D3Pal-Ser-NMeTyr-DLys(Nic)-Leu-NH--(CH2)2 NHCH3] (Ac-[d2Nal][dPhe(4-Cl)][d3Pal]S[NMeY][dK](Nicotinoyl)L-NHCH2CH2NHMe), for which the “LHRH antagonist potency (pA2)” value worked out at 9.70. `CC(=O)N[C@H](Cc1ccc2ccccc2c1)C(=O)N[C@H](Cc1ccc(Cl)cc1)C(=O)N[C@H](Cc1cccnc1)C(=O)N[C@@H](CO)C(=O)N(C)[C@@H](Cc1ccc(O)cc1)C(=O)N[C@H](CCCCNC(=O)c1cccnc1)C(=O)N[C@@H](CC(C)C)C(=O)NCCCCCCCCNC(=N)N` [Example 20, NAcD2Nal-D4ClPhe-D3Pal-Ser-NMeTyr-DLys(Nic)-Leu-NH--(CH2)8 NH(C=NH)NH2] (Ac-[d2Nal][dPhe(4-Cl)][d3Pal]S[NMeY][dK](Nicotinoyl)L-X6): the “LHRH antagonist potency (pA2)” value is 8.39. Take `CC(=O)N[C@H](Cc1ccc2ccccc2c1)C(=O)N[C@H](Cc1ccc(Cl)cc1)C(=O)N[C@H](Cc1cccnc1)C(=O)N[C@@H](CO)C(=O)N(C)[C@@H](Cc1ccc(O)cc1)C(=O)N[C@H](CCCCNC(=O)c1cccnc1)C(=O)N[C@@H](CC(C)C)C(=O)NCCCCCCCCCCNC(C)C` [Example 21, NAcD2Nal-D4ClPhe-D3Pal-Ser-NMeTyr-DLys(Nic)-Leu-NH--(CH2)10 NH-isopropyl] (Ac-[d2Nal][dPhe(4-Cl)][d3Pal]S[NMeY][dK](Nicotinoyl)L-X9): the “LHRH antagonist potency (pA2)” value amounted to 8.42. As for `CC(=O)N[C@H](Cc1ccc2ccccc2c1)C(=O)N[C@H](Cc1ccc(Cl)cc1)C(=O)N[C@H](Cc1cccnc1)C(=O)N[C@@H](CO)C(=O)N(C)[C@@H](Cc1ccc(O)cc1)C(=O)N[C@H](CCCCNC(=O)c1cccnc1)C(=O)N[C@@H](CC(C)C)C(=O)NCCCCNC(=N)N` [Example 22, NAcD2Nal-D4ClPhe-D3Pal-Ser-NMeTyr-DLys(Nic)-Leu-NH--(CH2)4 NH(C=NH)NH2] (Ac-[d2Nal][dPhe(4-Cl)][d3Pal]S[NMeY][dK](Nicotinoyl)L-Agmatine), the “LHRH antagonist potency (pA2)” value amounted to 10.26. On to `CC(=O)N[C@H](Cc1ccc2ccccc2c1)C(=O)N[C@H](Cc1ccc(Cl)cc1)C(=O)N[C@H](Cc1cccnc1)C(=O)N[C@@H](CO)C(=O)N(C)[C@@H](Cc1ccc(O)cc1)C(=O)N[C@H](CCCCNC(=O)c1cccnc1)C(=O)N[C@@H](CC(C)C)C(=O)NCc1ccccn1` [Example 23, NAcD2Nal-D4ClPhe-D3Pal-Ser-NMeTyr-DLys(Nic)-Leu-NH--CH2 -(2-pyridine)] (Ac-[d2Nal][dPhe(4-Cl)][d3Pal]S[NMeY][dK](Nicotinoyl)L-{NHCH2(2-pyridyl)}), for which the “LHRH antagonist potency (pA2)” value is given as 9.18.
